Laboratory results as given in US5948814A, “Genistein for the treatment of cystic fibrosis” (priority 1998, dated 1999).
Where “and” joins values, the source holds several entries; their conditions need not be identical. Identical values can stand only once. Like-named read-outs stand apart in the source and are kept apart here.

Tests used:
wt-CFTR [1] = target: T1, wt-CFTR (Homo sapiens, UniProt P13569)
Experimental: FIGS. 3A and B show recordings of the potentiation of wild-type (wt) and ΔF508-CFTR channel activity by genistein. […]
(§1) Cell culture: NIH/3T3-CFTR, NIH/3T3-ΔF508, and NIH/3T3 mock cells (generous gifts from Dr. Richard Mulligan of Children's Hospital and Medical Center, Harvard Medical School) were grown as described [Bradbury et al., 1992] at 37° C. and 5% CO2 in Dulbecco's modified Eagle's medium-H21 supplemented with 10% new-born calf serum, 4 mM glutamine, 25 mM glucose, 100 μg/ml penicillin, 100 μg/ml streptomycin, and 50 μg/ml gentamicin. Cells were maintained in T75 flasks, passaged at 90-95% confluency, and split one to four. For measurements of I^- efflux and in vivo phosphorylation, cells were seeded onto 35-mm dishes at […]. For patch-clamp experiments, cells were grown on coverglass chips in 35-mm culture dishes. Media were replaced 24 hours after plating and thereafter every 48 hours. In all cases, media were changed on the day before I^- efflux studies, NIH/3T3-ΔF508 cells were transferred to 27° C. three days before use, and 1 day prior to study, media were supplemented with 5 mM butyrate. For patch-clamp studies, where a constant level of functional ΔF508-CFTR was not essential, NIH/3T3-ΔF508 cells were cultured at 27° C. for 2-6 days before use. Calu-3 cells were grown and maintained as described by Hunter [1995].
Electrophysiology: CFTR channel currents were recorded at room temperature (~22° C.) with a patch-clamp amplifier (EPC-9, Heka Electronic), filtered at 100 Hz with a built-in three-pole Bessel filter, and stored on videotapes. Data were subsequently refiltered at 25 Hz with an eight-pole Bessel filter (Frequency Device, Havervill, Mass.) and captured onto a hard disk at a sampling rate of 50 Hz. […] Patch-clamp electrodes were made from Corning 7052 glass capillaries (Warner Instrument, Hammed, Conn.). The pipette resistance was usually 3-5 M.OMEGA., and the seal resistance was >20 G.OMEGA.. The pipette solution contained (in mM) 140 N-methyl-D-glucamine chloride (NMDG-C1), 2 MgCl2, 5Ca Cl2, and 10 HEPES (pH 7.4 with NMDG). The superfusion solution contained (in mM) 150 […], 2 MgCl2, 1 EGTA, 5 glucose, and 5 HEPES (pH 7.4 with NaOH). In excised inside-out patch experiments, the bath solution contained (in mM) 130 MNDG-Cl, 10 EGTA, 10 HEPES, 20 tetraethylammonium chloride, 8 Tris, and 2 MgCl2 (pH 7.4 with NMDG). Pipette potential was held at 50 mV relative to the bath. Downward deflections represent channel opening.
Statistics: Mean currents and variance were estimated with Igor (Wavemetrics, Lake Oswego, Oreg.). Parameters for mean current-variance relationships and dose-response curves were obtained from least-square fitting with Sigmaplot (Jandel, San Rafael, Calif.). Po was calculated from patches containing a single channel by dividing the open channel current amplitude with the mean-current amplitude.

wt-CFTR [2] = target: T1, wt-CFTR; test: cell-based; type: cell-based; design: expressed in transfected cells
Experimental: FIG. 1 is a graph representing the dose-responses relationship for forskolin-dependent I^- efflux. Peak rates of I^- efflux in the presence (closed symbols) or absence (open symbols) of 50 μM genistein were obtained with NIH/3T3-cystic fibrosis transmembrane conductance regulator (NIH/3T3-CFTR) (circles) and NTH/3T3-Δphenylalanine 508 (ΔF508) cells (triangles). NIH/3T3-CFTR cells are cultured at 37° C. NIH/3T3-Δ508 cells are cultured at 27° C. for 3 days prior to assay. Data are mean values±SE (n>5). Lines were fit by nonlinear least squares.
as §1
I^- efflux: I^- efflux was measured as described previously [Reenstra et al., 1996]. Briefly, cells were incubated for 30 minutes with 37° C. I^- efflux buffer [(in mM) 141 NaCl, 4 KCl, 1 KH2 PO4, 0.9 MgCl2, 1.7 CaCl2. 10 N-2hydroxyethylpiperazine-N'-2-ethanesulfonic acid (HEPES), 25 glucose pH 7.4] containing 5 μCi/ml carrier-free ^125 I^- (sodium salt). Extracellular ^125 I^- was removed by washing four times with efflux buffer, and the rate of loss of intracellular ^125 I^- was determined by replacing the bathing solution with 37° C. efflux buffer every 60 seconds for 12 minutes. Time-dependent rates of ^125 I^- efflux are calculated from R=ln(^125 I^-t1 /^125 I^-t2)/(t1-t2), where ^125 I^-t is the intracellular ^125 I^- at time t and t1 and t2 are successive time points. Dose-response curves were obtained from peak rates of 125I^- efflux by nonlinear least squares fitting to R=[Ro +Rmx ·([fsk]/K1/2)]/[1+([fsk]/K1/2)], where Ro and Rmx are the rates of ^125 I efflux at zero and infinite concentration of forskolin (fsk), and K1/2 is the concentration of agonist that gives a half-maximal change.
To investigate effects of genistein on CFTR activity, the rates of I^- efflux were measured from stably transfected NIH/3T3 cells expressing wt- and ΔF508-CFTR (NIH/33-CFTR and NIH/3T3-ΔF508 cells, respectively).

wt-CFTR [3] = target: T1, wt-CFTR; type: cell-based; design: expressed in transfected cells
Experimental: FIGS. 4A and B are graphs showing the variance analysis of macroscopic currents for wt- and ΔF508-CFTR wherein (A) is a plot of variance as a function of mean-current amplitude for NIH/3T3-CFTR(.circle-solid.) and NIH/3T3-ΔF508 (.smallcircle.) cells stimulated with 10 μM forskolin plus 50 μM genistein. (B) is a plot of variance as a function of mean-current amplitude for NIH/3T3-CFTR (.circle-solid.) and NIH/3T3-ΔF508 (.smallcircle.) cells stimulated with 10 μM forskolin. Lines are least square regressions.
Electrophysiology: CFTR channel currents were recorded at room temperature (~22° C.) with a patch-clamp amplifier (EPC-9, Heka Electronic), filtered at 100 Hz with a built-in three-pole Bessel filter, and stored on videotapes. Data were subsequently refiltered at 25 Hz with an eight-pole Bessel filter (Frequency Device, Havervill, Mass.) and captured onto a hard disk at a sampling rate of 50 Hz. […] Patch-clamp electrodes were made from Corning 7052 glass capillaries (Warner Instrument, Hammed, Conn.). The pipette resistance was usually 3-5 M.OMEGA., and the seal resistance was >20 G.OMEGA.. […]
Statistics: Mean currents and variance were estimated with Igor (Wavemetrics, Lake Oswego, Oreg.). […] Po was calculated from patches containing a single channel by dividing the open channel current amplitude with the mean-current amplitude. […] Calculated values are presented as means±SE. […]

T1 sequence (P13569 whole entry): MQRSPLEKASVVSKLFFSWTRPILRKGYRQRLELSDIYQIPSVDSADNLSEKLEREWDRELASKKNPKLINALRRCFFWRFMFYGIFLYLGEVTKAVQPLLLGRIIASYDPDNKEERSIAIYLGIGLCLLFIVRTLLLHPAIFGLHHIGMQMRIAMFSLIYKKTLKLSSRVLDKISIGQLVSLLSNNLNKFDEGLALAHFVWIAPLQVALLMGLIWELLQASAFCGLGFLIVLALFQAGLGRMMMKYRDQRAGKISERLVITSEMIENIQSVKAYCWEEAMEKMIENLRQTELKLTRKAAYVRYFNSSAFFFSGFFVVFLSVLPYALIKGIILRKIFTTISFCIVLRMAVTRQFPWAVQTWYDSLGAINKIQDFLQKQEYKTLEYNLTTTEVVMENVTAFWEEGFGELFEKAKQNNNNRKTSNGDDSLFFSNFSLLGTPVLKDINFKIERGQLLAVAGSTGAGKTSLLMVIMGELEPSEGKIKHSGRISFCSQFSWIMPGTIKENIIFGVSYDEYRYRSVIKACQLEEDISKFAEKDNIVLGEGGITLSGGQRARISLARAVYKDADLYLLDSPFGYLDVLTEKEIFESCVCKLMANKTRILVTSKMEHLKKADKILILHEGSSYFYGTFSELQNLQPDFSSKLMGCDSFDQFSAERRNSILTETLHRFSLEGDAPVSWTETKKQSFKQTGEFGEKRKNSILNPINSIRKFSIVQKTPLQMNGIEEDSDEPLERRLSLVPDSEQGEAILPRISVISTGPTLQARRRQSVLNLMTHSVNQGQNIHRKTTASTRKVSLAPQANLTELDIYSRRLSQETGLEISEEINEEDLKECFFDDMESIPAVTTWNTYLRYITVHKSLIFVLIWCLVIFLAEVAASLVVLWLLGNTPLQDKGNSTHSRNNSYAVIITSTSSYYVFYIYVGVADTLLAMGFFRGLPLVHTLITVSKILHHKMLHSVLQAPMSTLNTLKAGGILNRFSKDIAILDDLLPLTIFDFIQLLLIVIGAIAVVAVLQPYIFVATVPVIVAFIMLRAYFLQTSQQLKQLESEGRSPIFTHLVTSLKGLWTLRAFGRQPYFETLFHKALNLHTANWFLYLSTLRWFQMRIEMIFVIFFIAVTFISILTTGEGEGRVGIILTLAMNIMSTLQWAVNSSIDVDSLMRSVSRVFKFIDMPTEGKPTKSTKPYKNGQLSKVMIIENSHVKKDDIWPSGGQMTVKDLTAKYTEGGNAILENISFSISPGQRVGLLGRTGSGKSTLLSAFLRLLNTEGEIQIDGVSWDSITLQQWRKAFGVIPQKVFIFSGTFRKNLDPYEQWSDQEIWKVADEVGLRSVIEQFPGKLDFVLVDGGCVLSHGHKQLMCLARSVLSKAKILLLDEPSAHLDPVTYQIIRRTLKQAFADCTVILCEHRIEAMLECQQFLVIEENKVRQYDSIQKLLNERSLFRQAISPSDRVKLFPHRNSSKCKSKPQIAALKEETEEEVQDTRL

Structure (SMILES) | macroscopic current (wt-CFTR [1]; 5 μM genistein with 50 nM forskolin) | average increase in mean-current amplitude by genistein (wt-CFTR [1]; 50 μM genistein on 10 μM forskolin, NIH/3T3-CFTR, 50 µM) | increase of forskolin-dependent wt-CFTR activity by genistein (wt-CFTR [1]; 50 μM genistein, NIH/3T3-CFTR cells incubated at 27° C. for 2-6 days, n=13) | increase of wt-CFTR current by genistein (wt-CFTR [1]; multichannel patches, 50 nM forskolin, n=6) | effect on I- efflux at high forskolin concentrations (wt-CFTR [2]; 50 μM genistein, high forskolin) | slope of variance vs mean current (proportional to 1-Po) (wt-CFTR [3]; 10 μM forskolin and 50 μM genistein) | single-channel current steps observed (wt-CFTR [1]; 50 nM forskolin) | EC50 (wt-CFTR [2]) | stimulation of normal CFTR activity (wt-CFTR [2]) | maximal fold induction at 10 µM (wt-CFTR [2]; mouse, read-out: maximal stimulation of I- efflux) | EC50 (wt-CFTR [2]; read-out: K1/2 of forskolin for I- efflux in presence of genistein, with 50 μM genistein, NIH/3T3-CFTR cells) | slope of variance vs mean current (proportional to 1-Po) (wt-CFTR [3]; 10 μM forskolin)
O=c1c(-c2ccc(O)cc2)coc2cc(O)cc(O)c12 [Genistein, 4',5,7-trihydroxyisoflavone] | ~ 7.5 pA | 3.9±0.4 fold and 3.3±0.4 fold | 3.1±0.3 fold | 21±6 fold | had no effect at high forskolin concentrations | 0.17±0.02 pA | – | – | – | – | – | –
C=C[C@@]1(C)CC(=O)[C@]2(O)[C@@]3(C)[C@@H](O)CCC(C)(C)[C@@H]3[C@H](O)[C@H](OC(C)=O)[C@@]2(C)O1 [forskolin] | – | – | – | – | – | – | ≤ 4 | 110 ± 30 nM | stimulates normal CFTR activity very well | 8.2 ± 0.4 | 50 ± 20 nM | 0.27±0.02 pA
